Measured values: PubChem BioAssay AID1845197 (Molecular Pharmacology Branch, DTP, NCI, 2023)

System: 349418-098-R tumor spheroid viability
Assay: Anticancer human tumor 349418-098-R patient-derived lung adenocarcinoma cell line growth inhibition
Settings: spheroids with HUVEC and MSC; for viability, T/C: stronger effect = lower value
Method in brief: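 Complex spheroids of malignant cells with endothelial cells and mesenchymal stem cells; agents alone or combined, from near clinical Cmax (or 10 microM if unknown) down in half-log steps, 0.25% DMSO final.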

[1] = curve of first compound, second compound 0.003 µM
[2] = curve of first compound, second compound 0.00949 µM
[3] = curve of first compound, second compound 0.03 µM
[4] = curve of first compound, second compound 0.0949 µM
[5] = curve of first compound, second compound 0.3 µM
[6] = second compound 0.003 µM, first compound 0.0316 µM
[7] = second compound 0.003 µM, first compound 0.1 µM
[8] = second compound 0.003 µM, first compound 0.316 µM
[9] = second compound 0.003 µM, first compound 1 µM
[10] = second compound 0.003 µM, first compound 3.16 µM
[11] = second compound 0.003 µM, first compound 10 µM
[12] = second compound 0.00949 µM, first compound 0.0316 µM
[13] = second compound 0.00949 µM, first compound 0.1 µM
[14] = second compound 0.00949 µM, first compound 0.316 µM
[15] = second compound 0.00949 µM, first compound 1 µM
[16] = second compound 0.00949 µM, first compound 3.16 µM
[17] = second compound 0.00949 µM, first compound 10 µM
[18] = second compound 0.03 µM, first compound 0.0316 µM
[19] = second compound 0.03 µM, first compound 0.1 µM
[20] = second compound 0.03 µM, first compound 0.316 µM
[21] = second compound 0.03 µM, first compound 1 µM
[22] = second compound 0.03 µM, first compound 3.16 µM
[23] = second compound 0.03 µM, first compound 10 µM
[24] = second compound 0.0949 µM, first compound 0.0316 µM
[25] = second compound 0.0949 µM, first compound 0.1 µM
[26] = second compound 0.0949 µM, first compound 0.316 µM
[27] = second compound 0.0949 µM, first compound 1 µM
[28] = second compound 0.0949 µM, first compound 3.16 µM
[29] = second compound 0.0949 µM, first compound 10 µM
[30] = second compound 0.3 µM, first compound 0.0316 µM
[31] = second compound 0.3 µM, first compound 0.1 µM
[32] = second compound 0.3 µM, first compound 0.316 µM
[33] = second compound 0.3 µM, first compound 1 µM
[34] = second compound 0.3 µM, first compound 3.16 µM
[35] = second compound 0.3 µM, first compound 10 µM
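Note: spheroids exposed to compound for 7 days before measurement.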
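Throughout, for viability, T/C: percent of vehicle control viability with 100% = DMSO-treated spheroids.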

| SMILES | IC50 [1] | IC50 [2] | IC50 [3] | IC50 [4] | IC50 [5] | viability, T/C [6] | viability, T/C [7] | viability, T/C [8] | viability, T/C [9] | viability, T/C [10] | viability, T/C [11] | viability, T/C [12] | viability, T/C [13] | viability, T/C [14] | viability, T/C [15] | viability, T/C [16] | viability, T/C [17] | viability, T/C [18] | viability, T/C [19] | viability, T/C [20] | also measured |
| --- | --- | --- | --- | --- | --- | --- | --- | --- | --- | --- | --- | --- | --- | --- | --- | --- | --- | --- | --- | --- | --- |
| CC(C)n1c(=O)n(C)c2cnc3cc(F)c(-c4ccc(OCCCN5CCCCC5)nc4)cc3c21 + CC[C@@]1(O)C(=O)OCc2c1cc1n(c2=O)Cc2cc3c(CN(C)C)c(O)ccc3nc2-1 | > 10 µM | 4.93 µM | < 0.0316 µM | < 0.0316 µM | < 0.0316 µM | 96.9% | 93.2% | 93.8% | 99.6% | 100% | 63.9% | 67.6% | 69.3% | 66.2% | 67.7% | 63.4% | 28.7% | 24.3% | 22% | 22.2% | viability, T/C [21]: 22.7%; viability, T/C [22]: 27.8%; viability, T/C [23]: 17%; viability, T/C [24]: 7.03%; viability, T/C [25]: 9.49%; viability, T/C [26]: 9.54%; viability, T/C [27]: 9.81%; viability, T/C [28]: 11.7%; viability, T/C [29]: 12.4%; viability, T/C [30]: 5.01%; viability, T/C [31]: 4.88%; viability, T/C [32]: 5.74%; viability, T/C [33]: 6.26%; viability, T/C [34]: 8.16%; viability, T/C [35]: 8.82% |
| COc1cc2c(cc1O)CCNC21CSC2c3c(OC(C)=O)c(C)c4c(c3C(COC1=O)N1C(O)C3Cc5cc(C)c(OC)c(O)c5C(C21)N3C)OCO4 (stereo not given) | – | – | – | – | – | – | – | – | – | – | – | – | – | – | – | – | – | – | – | – | viability, T/C (compound 94.9 pM): 90.5% [middle of 10 runs]; viability, T/C (compound 0.0003 µM): 88.1% [middle of 10 runs]; viability, T/C (compound 0.000949 µM): 0.55% [middle of 10 runs]; viability, T/C (compound 0.003 µM): 1.4% [middle of 9 runs]; IC50 (compound alone, run of 10/25/2019): 0.496 nM [middle of 9 runs] |
| COc1cc(C)[nH]c(=O)c1CN1CCc2c(Cl)cc(C(OC)C3COC3)c(Cl)c2C1=O (stereo not given) + CC[C@@]1(O)C(=O)OCc2c1cc1n(c2=O)Cc2cc3c(CN(C)C)c(O)ccc3nc2-1 | > 10 µM | > 10 µM | 5.48 µM | < 0.0316 µM | < 0.0316 µM | 108% | 123% | 104% | 109% | 109% | 114% | 104% | 121% | 100% | 113% | 97.1% | 94.8% | 89.7% | 73.8% | 65.6% | viability, T/C [21]: 71.8%; viability, T/C [22]: 60.1%; viability, T/C [23]: 40.5%; viability, T/C [24]: 19.4%; viability, T/C [25]: 17.1%; viability, T/C [26]: 9.77%; viability, T/C [27]: 16%; viability, T/C [28]: 13.4%; viability, T/C [29]: 8.01%; viability, T/C [30]: 5.42%; viability, T/C [31]: 4.95%; viability, T/C [32]: 4.96%; viability, T/C [33]: 3.5%; viability, T/C [34]: 4.11%; viability, T/C [35]: 5.21% |
